From the OPERA property sets (Mansouri et al. 2018)

Compared with `c1ccc2cc3c(cc2c1)sc1ccccc13`, `c1ccc2cc3c(cc2c1)oc1ccccc13` is lower in logP: 5.34 for the first, 5.05 for the second.

First: c1ccc2c(c1)cc1ccc3cccc4c5ccccc5c2c1c34
Second: c1ccc2c(c1)c1cccc3ccc4cccc2c4c31
The logP of the first is higher: 7.71 for the first, 6.44 for the second.

`c1ccc2c(c1)ccc1c2ccc2ccc3ccccc3c21` and `c1ccc2c(c1)ccc1c2ccc2c3ccccc3ccc21` are the same in logP: 7.11 for the first, 7.11 for the second.

Compared with `c1cc2ccc3ccc4ccc5ccc6ccc1c1c2c3c4c5c61`, `c1cc2ccc3cc4cccc5ccc6cc(c1)c2c3c6c54` is lower in logP: 7.64 for the first, 7.04 for the second.

Compared with `c1ccc(-c2ccccn2)nc1`, `c1ccc(-c2cccc(-c3ccccn3)n2)nc1` is higher in logP: 1.5 for the first, 1.96 for the second.

Compared with `c1csc(-c2cccs2)c1`, `c1ccc2c(c1)Sc1ccccc1S2` is higher in logP: 3.75 for the first, 4.47 for the second.

First: c1ccc2c(c1)Cc1ccccc1O2
Second: c1ccc2cc3cc4cc5ccccc5cc4cc3cc2c1
The logP of the first is lower: 4.23 for the first, 7.11 for the second.

`c1ccc(-c2c3ccccc3c(-c3ccccc3)c3ccccc23)cc1` and `c1ccc2c(c1)c1ccccc1c1c3ccccc3c3ccccc3c21` are within 0.2 log units of each other in logP: 8.46 for the first, 8.39 for the second.

Going from `c1cc(-c2ccncc2)ccn1` to `c1ccc2cc3c(ccc4c5ccccc5ccc34)cc2c1`, the logP rises from 1.28 to 7.11.
